The source of these data is patent publication US20070167456A1, “Mercaptoimidazoles as ccr2 receptor antagonists” (priority 2004, published 2007).

The target of one data set is T1, CCR2 receptor (Homo sapiens, UniProt P41597).
T1 construct: host or cells: THP-1 (human monocytic cell line)
T1 sequence (P41597 1-360 isoform P41597-2): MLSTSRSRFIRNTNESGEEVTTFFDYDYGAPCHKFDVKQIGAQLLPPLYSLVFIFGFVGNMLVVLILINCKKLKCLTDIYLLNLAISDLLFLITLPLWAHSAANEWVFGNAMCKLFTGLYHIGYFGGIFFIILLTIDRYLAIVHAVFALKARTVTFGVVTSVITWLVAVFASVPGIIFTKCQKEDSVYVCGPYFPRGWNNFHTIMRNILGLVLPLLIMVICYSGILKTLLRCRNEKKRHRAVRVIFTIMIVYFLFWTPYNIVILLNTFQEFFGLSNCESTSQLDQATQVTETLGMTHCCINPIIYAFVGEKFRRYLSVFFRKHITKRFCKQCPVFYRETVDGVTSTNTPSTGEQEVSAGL
The data set is described as follows: Inhibition of MCP-1 induced Ca-flux in human THP-1 cells. It is filed as cell-based. The conditions noted are these: inhibition of specific MCP-1 induced Ca2+ flux, 10^-7 M hMCP-1, 20 minutes pre-incubation, FLIPR, Fluo-3 AM. The protocol: Inhibition of MCP-1 Induced Ca-flux in Human THP-1 Cells
MCP-1 binding to the CCR2 receptor induces a rapid and transient intracellular release of Ca^2+ (secondary messenger) in several cell lines (Charo et al, PNAS 1994). Free Ca^2+ levels can be measured using a Ca^2+ sensitive dye. When the CCR2 receptor is blocked with a CCR2 receptor antagonist, the MCP-1 induced release of Ca^2+ is inhibited.
Human THP-1 cells (monocytic cell line, ATCC TIB-202) were cultured in RPMI 1640 medium supplemented with 10% fetal calf serum (FCS), 1% L-Glutamine, penicillin (50 U/ml) and streptomycin (50 μg/ml) (all GIBCO BRL, Gent). After centrifugation, cells were loaded for 30 minutes with the Ca^2+ sensitive fluorescent dye Fluo-3 AM (Molecular Probes, Leiden, Netherlands) (2 million cells/ml in RPMI medium containing 4 μM Fluo-3 AM, 20 mM HEPES, 0.1% Bovine Serum Albumin (BSA) and 5 mM probenecid). Excess dye was removed by 3-fold washing with buffer (5 mM HEPES, 140 mM NaCl, 1 mM MgCl2, 5 mM KCl, 10 mM glucose, 2.5 mM probenecid, 1.25 mM CaCl2, 0.1% BSA; all further incubations were done in this buffer). Cells were plated at a density of 150 000 cells/well in dark-wall 96-well plates (Costar, Cambridge, Mass.) and sedimented by centrifugation (1 minute). The cells were pre-incubated for 20 minutes with test compound. Then, 10^−7 M hMCP-1 (Bachem, Bubendorf, Switserland) was added. Changes in intracellular free Ca^2+ concentration were measured using the Fluorescent Imaging Plate Reader (FLIPR, Molecular Devices, Munchen, Germany). Fluorescence was recorded every second from 10 seconds before the addition of the MCP-1 till 2 minutes after the addition (first minute: 60 records with 1 second intervals, second minute 20 records with 3 second intervals). The maximal fluorescence obtained during this time frame was used for further calculations.
Table 3 reports pIC50 values obtained in the above-described test for compounds of formula (I). pIC50 defines −log IC50 wherein IC50 is the molar concentration of the test compound which inhibits 50% of specific MCP-1 induced Ca^2+ flux.
For orientation: Calcium assays in cells follow changes in intracellular calcium, usually with a dye or a luminescent sensor.

Molecules are shown by their SMILES.

By melting point is commonly meant the temperature, or range, at which the solid turns liquid. What is called IC50 is the concentration that gives 50% inhibition. `CCC(c1ccc(Cl)c(Cl)c1)n1c(C(=O)OC)c(N)[nH]c1=S` (stereo not drawn) [Compound 1] returned a melting point of 183.9 to 184 °C. At CCR2 receptor, this molecule had an IC50 of 63.1 nM.

On CCR2 receptor, `CCC(c1ccc(Cl)c(Cl)c1)n1c(C(=O)OC)c(NC(C)=O)[nH]c1=S` (stereo not drawn) [Compound 2] had an IC50 of 50.1 nM. In other words, the double-digit nanomolar range.

In the case of `CCC(c1ccc(Cl)c(Cl)c1)n1c(C(=O)OC)c(NC(=O)c2cnccn2)[nH]c1=S` (stereo not drawn) [Compound 3], the melting point was in the range of 196.9 to 198.6 °C. The molecule further showed an IC50 against CCR2 receptor of 79.4 nM.

Turning to `CCC(=O)Nc1[nH]c(=S)n(C(CC)c2ccc(Cl)c(Cl)c2)c1C(=O)OC` (stereo not drawn) [Compound 4], the IC50 at CCR2 receptor is 126 nM. This lies in the sub-micromolar range.

On to `CCC(c1ccc(Cl)c(Cl)c1)n1c(C(=O)OC)c(NC(=O)c2cccnc2)[nH]c1=S` (stereo not drawn) [Compound 5], for which the IC50 on CCR2 receptor was 200 nM.

On to `CCC(c1ccc(Cl)c(Cl)c1)n1c(C(=O)OC)c(NC(=O)c2ccncc2)[nH]c1=S` (stereo not drawn) [Compound 6], for which the IC50 on CCR2 receptor was 126 nM. Against the preceding molecule, the IC50 is about 1.6-fold lower.

At CCR2 receptor, `CCC(c1ccc(Cl)c(Cl)c1)n1c(C(=O)OC)c(NC(=O)c2cc(C)on2)[nH]c1=S` (stereo not drawn) [Compound 7] showed an IC50 of 158 nM.

Consider `CCC(c1ccc(Cl)c(Cl)c1)n1c(C(=O)OC)c(NC(=O)c2nonc2C)[nH]c1=S` (stereo not drawn) [Compound 8], for which half-maximal inhibition against CCR2 receptor (IC50) required 501 nM.

On CCR2 receptor, `CCC(c1ccc(Cl)c(Cl)c1)n1c(C(=O)OC)c(NC(=O)c2cncnc2)[nH]c1=S` (stereo not drawn) [Compound 9] showed an IC50 of 200 nM.

`CCC(c1ccc(Cl)c(Cl)c1)n1c(C(=O)OC)c(NC(=O)c2ccccc2)[nH]c1=S` (stereo not drawn) [Compound 10] showed an IC50 against CCR2 receptor of 200 nM.

For `CCC(c1ccc(Cl)c(Cl)c1)n1c(C(=O)OC)c(NC(=O)c2ccco2)[nH]c1=S` (stereo not drawn) [Compound 11], the IC50 against CCR2 receptor is 25.1 nM.

The molecule `CCC(c1ccc(Cl)c(Cl)c1)n1c(C(=O)OC)c(NC(=O)c2ccccn2)[nH]c1=S` (stereo not drawn) [Compound 12] showed an IC50 at CCR2 receptor of 39.8 nM.

On CCR2 receptor, `CCC(c1ccc(Cl)c(Cl)c1)n1c(C(=O)OC)c(NC(=O)C2CCOC2)[nH]c1=S` (stereo not drawn) [Compound 13] gave an IC50 of 79.4 nM.

At CCR2 receptor, `CCC(c1ccc(Cl)c(Cl)c1)n1c(C(=O)OC)c(NC(=O)OC)[nH]c1=S` (stereo not drawn) [Compound 15] had an IC50 of 15.8 nM. Compared with the last molecule, the IC50 is about 5-fold lower.

`CCC(c1ccc(Cl)c(Cl)c1)n1c(C(=O)OC)c(NC(=O)NCC(OC)OC)[nH]c1=S` (stereo not drawn) [Compound 16] showed a concentration for half-maximal inhibition (IC50) against CCR2 receptor of 251 nM.

As for `CCC(c1ccc(Cl)c(Cl)c1)n1c(C(=O)OC)c(NC(=O)NCc2ccccc2)[nH]c1=S` (stereo not drawn) [Compound 17], the 50% inhibitory concentration (IC50) on CCR2 receptor is 631 nM.

The molecule `CCC(c1ccc(Cl)c(Cl)c1)n1c(C(=O)OC)c(NC(=O)N2CCOCC2)[nH]c1=S` (stereo not drawn) [Compound 18] showed an IC50 against CCR2 receptor of 100 nM.

In the case of `CCC(c1ccc(Cl)c(Cl)c1)n1c(C(=O)OC)c(NC(=O)C2CCCO2)[nH]c1=S` (stereo not drawn) [Compound 19], at CCR2 receptor, the IC50 is 79.4 nM. The IC50 values of the last two molecules are within 1.5-fold of each other.

The molecule `CCC(c1ccc(Cl)c(Cl)c1)n1c(C(=O)OC)c(NC(=O)N2CCN(C)CC2)[nH]c1=S` (stereo not drawn) [Compound 20] gave a 50% inhibitory concentration (IC50) on CCR2 receptor of 316 nM. Compared with the last molecule, the IC50 is about 4-fold higher.

`CCC(c1ccc(Cl)c(Cl)c1)n1c(C(=O)OC)c(NC(=O)N2CCCC2)[nH]c1=S` (stereo not drawn) [Compound 21] gave an IC50 against CCR2 receptor of 126 nM.

Molecule `CCC(c1ccc(Cl)c(Cl)c1)n1c(C(=O)OC)c(NC(=O)N2CCN(Cc3ccccc3)CC2)[nH]c1=S` (stereo not drawn) [Compound 22] had an IC50 against CCR2 receptor of 398 nM.

The molecule `CCC(c1ccc(Cl)c(Cl)c1)n1c(C(=O)OC)c(NC(=O)N2CCCCC2)[nH]c1=S` (stereo not drawn) [Compound 23] showed an IC50 against CCR2 receptor of 158 nM.
